Measured values: patent publication US20260167662A1, “MODIFIED […] GUANIDINO STRUCTURE IN BRIDGED PART AND METHOD FOR PRODUCING OLIGO[…] SAME” (LUXNA BIOTECH CO., LTD., priority 2022, published 2026)

Assay: Stability test of amidite: 0.1 M solution in acetonitrile stored in the dark at room temperature, analysed by UHPLC
Type: physicochemical
Conditions: 0.1 M in acetonitrile
Method: • Device used: ACQUITY Arc UHPLC system manufactured by Waters Corporation • Column: Xbridge BEH C18, 2.5 μm, 3.0×100 mm, Column XP manufactured by Waters Corporation • Mobile phase: Gradient
• Flow rate: 0.85 mL/min • Detection: PDA (200 to 400 nm) • Column temperature: 30° C. • Analysis time: 10.00 min
The amidite a3 (purity was 96.3%) obtained in Example 1, and an amidite a3′ (purity was 90.9%) synthesized according to the method described in Patent Document 5 were each dissolved in acetonitrile to prepare a 0.1 M solution.
Of the two 0.1 M solutions obtained, the solution containing the amidite a3 of Example 1 was stored in the dark at room temperature for 7 days. On the other hand, the solution containing the amidite a3′ of Patent Document 5 was stored in the dark at room temperature for 17 hours.
The UHPLC results of the amidites a3 and a3′ contained respectively in the stored solutions are shown in Tables 7 and 8, and the UHPLC-MS results of the amidites a3 and a3′ contained respectively in the stored solutions are shown in FIGS. 12 and 13.

SMILES | % Area of main UHPLC peak after storage (stored for 7 days, retention time 7.335 min, purity before storage 96.3%) [%] | Stability in stored solution, compared by UHPLC peaks (a3 stored 7 days versus a3′ stored 17 hours) | % Area of main UHPLC peak after storage (stored for 17 hours, retention time 5.866 min, purity before storage 90.9%) [%]
COc1ccc(C(OC[C@]23CN(/C(=N/C(=O)OCC4c5cc(C(C)(C)C)ccc5-c5ccc(C(C)(C)C)cc54)NC(C)(C)C)C(C2OP(OCCC#N)N(C(C)C)C(C)C)[C@H](n2cc(C)c(=O)[nH]c2=O)O3)(c2ccccc2)c2ccc(OC)cc2)cc1 (stereo partly drawn) [amidite a3, di-tBu-Fmoc-GuNA[t-Bu]-T amidite] | 95.21 | more stable | 
COc1ccc(C(OC[C@@]23CN(/C(=N/C(=O)OCC4c5ccccc5-c5ccccc54)NC(C)(C)C)C([C@H](n4cc(C)c(=O)[nH]c4=O)O2)[C@H]3OP(OCCC#N)N(C(C)C)C(C)C)(c2ccccc2)c2ccc(OC)cc2)cc1 (stereo partly drawn) [amidite a3′, reference compound] |  |  | 76.00
